# Data: BindingDB's records for doi:10.1046/j.1471-4159.2000.751294.x (University of California, 2000)
# Assay: Displacement of [3H]IMI from nicotinic acetylcholine receptor in Aphis craccivora (cowpea aphid) whole body membrane after 90 min by filter binding assay
row,SMILES,IC50 [nM]
1,C/N=C(\NCc1ccc(Cl)nc1)N[N+](=O)[O-],4.4
2,O=[N+]([O-])/N=C1\NCOCN1Cc1ccc(Cl)nc1,15
3,O=[N+]([O-])/N=C1\NCOCN1Cc1cnc(Cl)s1 [DESMETHYLTHIAMETHOXAM],11
4,O=[N+]([O-])/N=C1\NCCN1Cc1cnc(Cl)s1 [IMIDACLOTHIZ],8.2
